Counter-ions that a name gives are not always drawn. Each block holds one molecule with its values, some of them ahead of it.
Columns and labels:
Recombinant human MMP-1 = target: T1, Recombinant human MMP-1 (Homo sapiens, UniProt P03956); test: In vitro MMP inhibition, fluorogenic peptide substrate; type: biochemical
T1 construct: made in house; host or cells: transfected HT-1080 cells
T1 sequence (P03956 100-469): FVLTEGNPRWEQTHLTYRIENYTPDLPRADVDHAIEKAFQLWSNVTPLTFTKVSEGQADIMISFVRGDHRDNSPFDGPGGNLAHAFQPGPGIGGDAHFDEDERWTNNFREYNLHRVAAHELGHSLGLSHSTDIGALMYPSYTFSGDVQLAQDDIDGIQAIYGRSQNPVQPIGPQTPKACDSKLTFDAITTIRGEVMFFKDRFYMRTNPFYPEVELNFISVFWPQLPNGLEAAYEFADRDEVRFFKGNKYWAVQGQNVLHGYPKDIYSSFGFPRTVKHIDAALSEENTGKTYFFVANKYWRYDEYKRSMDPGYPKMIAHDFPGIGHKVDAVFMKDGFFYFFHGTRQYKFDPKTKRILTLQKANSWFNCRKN

Recombinant human MMP-13 = target: T2, Recombinant human MMP-13 (Homo sapiens, UniProt P45452); test: as above; type: biochemical
T2 construct: made in house; host or cells: baculovirus / insect cells

Recombinant human MMP-2 = target: T3, Recombinant human MMP-2 (Homo sapiens, UniProt P08253); test: as above; type: biochemical
T3 construct: made in house
T3 sequence (P08253 110-660): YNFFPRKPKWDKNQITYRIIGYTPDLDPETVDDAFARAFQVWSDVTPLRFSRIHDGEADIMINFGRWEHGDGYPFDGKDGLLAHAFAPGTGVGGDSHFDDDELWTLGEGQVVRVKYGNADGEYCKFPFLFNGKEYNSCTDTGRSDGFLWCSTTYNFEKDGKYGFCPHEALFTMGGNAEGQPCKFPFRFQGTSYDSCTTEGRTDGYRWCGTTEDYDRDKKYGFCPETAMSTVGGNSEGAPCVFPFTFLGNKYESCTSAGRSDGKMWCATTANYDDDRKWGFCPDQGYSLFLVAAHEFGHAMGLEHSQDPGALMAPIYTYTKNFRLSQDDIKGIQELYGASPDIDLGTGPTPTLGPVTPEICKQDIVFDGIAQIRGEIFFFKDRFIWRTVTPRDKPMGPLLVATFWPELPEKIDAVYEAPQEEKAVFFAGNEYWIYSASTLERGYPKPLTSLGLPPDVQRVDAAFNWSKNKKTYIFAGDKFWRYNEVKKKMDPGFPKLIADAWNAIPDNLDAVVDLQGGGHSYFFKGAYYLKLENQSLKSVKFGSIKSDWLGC

Recombinant human MMP-3 = target: T4, Recombinant human MMP-3 (Homo sapiens, UniProt P08254); test: as above; type: biochemical; details: Table B
T4 construct: made in house

Recombinant human MMP-8 = target: T5, Recombinant human MMP-8 (Homo sapiens, UniProt P22894); test: as above; type: biochemical; details: Table B
T5 construct: made in house

Recombinant human MMP-9 = target: T6, Recombinant human MMP-9 (Homo sapiens, UniProt P14780); test: as above; type: biochemical; details: Table B
T6 construct: made in house

Recombinant human MMP-14 = target: T7, Recombinant human MMP-14 (Homo sapiens, UniProt P50281); test: as above; type: biochemical; details: Table B
T7 construct: made in house

[1] = system: solid tumor cancers (colorectal, pancreatic, ovarian, and prostate); details: cited from earlier work

T6 sequence (P14780 107-707 limits assumed): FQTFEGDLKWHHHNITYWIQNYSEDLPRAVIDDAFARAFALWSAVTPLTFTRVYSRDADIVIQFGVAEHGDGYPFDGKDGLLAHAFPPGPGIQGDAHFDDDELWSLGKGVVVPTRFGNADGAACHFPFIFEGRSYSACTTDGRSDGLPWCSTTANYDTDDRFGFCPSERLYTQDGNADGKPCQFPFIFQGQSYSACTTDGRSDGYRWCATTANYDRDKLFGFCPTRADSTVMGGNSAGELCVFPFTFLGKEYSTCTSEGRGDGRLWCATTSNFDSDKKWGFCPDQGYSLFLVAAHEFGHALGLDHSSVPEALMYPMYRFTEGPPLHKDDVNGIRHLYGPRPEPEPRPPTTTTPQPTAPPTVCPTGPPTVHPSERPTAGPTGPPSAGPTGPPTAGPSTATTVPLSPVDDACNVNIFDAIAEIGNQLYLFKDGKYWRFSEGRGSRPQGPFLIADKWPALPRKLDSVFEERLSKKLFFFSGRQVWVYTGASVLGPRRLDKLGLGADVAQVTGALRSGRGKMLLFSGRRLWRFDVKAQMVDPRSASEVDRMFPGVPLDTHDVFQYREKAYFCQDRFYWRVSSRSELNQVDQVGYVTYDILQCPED
T5 sequence (P22894 101-467): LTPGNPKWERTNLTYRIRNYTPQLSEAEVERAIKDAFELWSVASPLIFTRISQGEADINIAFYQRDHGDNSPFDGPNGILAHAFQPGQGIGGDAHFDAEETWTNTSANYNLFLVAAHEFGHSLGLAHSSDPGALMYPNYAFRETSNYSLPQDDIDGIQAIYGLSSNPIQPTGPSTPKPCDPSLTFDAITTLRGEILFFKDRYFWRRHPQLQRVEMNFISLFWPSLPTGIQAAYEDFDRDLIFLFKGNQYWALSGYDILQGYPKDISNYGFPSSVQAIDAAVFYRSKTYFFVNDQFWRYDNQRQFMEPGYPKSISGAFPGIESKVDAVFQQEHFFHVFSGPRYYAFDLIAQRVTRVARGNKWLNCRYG
T4 sequence (P08254 100-477): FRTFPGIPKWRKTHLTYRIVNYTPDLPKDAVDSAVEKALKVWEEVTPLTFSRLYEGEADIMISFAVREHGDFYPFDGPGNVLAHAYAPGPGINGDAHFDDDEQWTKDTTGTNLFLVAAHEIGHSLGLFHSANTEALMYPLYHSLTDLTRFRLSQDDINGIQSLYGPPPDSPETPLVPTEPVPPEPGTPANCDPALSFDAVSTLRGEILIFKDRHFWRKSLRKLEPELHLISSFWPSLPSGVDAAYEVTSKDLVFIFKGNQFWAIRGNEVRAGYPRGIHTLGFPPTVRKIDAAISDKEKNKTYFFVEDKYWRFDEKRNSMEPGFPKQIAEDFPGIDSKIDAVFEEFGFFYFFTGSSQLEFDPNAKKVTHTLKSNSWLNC

- IC50 (Recombinant human MMP-1; Inhibition Table A): > 10000 nM
- IC50 (Recombinant human MMP-13; Inhibition Table A): > 10000 nM
Structure (SMILES): COc1ccc(NS(=O)(=O)c2ccccc2C(=O)NO)cc1 [Example 7, N-hydroxy-2-[(4-methoxyanilino)sulfonyl]benzamide]

- IC50 (Recombinant human MMP-2; Table B): 1000 nM
- IC50 (Recombinant human MMP-13; Table B): 6700 nM
Structure (SMILES): O=C(NO)c1ccccc1S(=O)(=O)N1CCN(C(=O)c2ccccc2)CC1 [Example 53, 2-[(4-benzoyl-1-piperazinyl)sulfonyl]-N-hydroxybenzamide]

- IC50 (Recombinant human MMP-1; Inhibition Table A): > 10000 nM
- IC50 (Recombinant human MMP-2; Inhibition Table A): 35 nM
- IC50 (Recombinant human MMP-13; Inhibition Table A): 900 nM
Structure (SMILES): O=C(NO)c1ccccc1S(=O)(=O)N1CCC(OCc2ccc(C(F)(F)F)cc2)CC1 [Example 14, N-hydroxy-2-[[4-[[4-(trifluoromethyl)phenyl]methoxy]-1-piperidinyl]sulfonyl]benzamide]

- IC50 (Recombinant human MMP-1; Inhibition Table A): > 10000 nM
Structure (SMILES): O=C(NO)c1ccccc1S(=O)(=O)N1CCC(Oc2ccc(C(F)(F)F)cc2)CC1 [Example 13, N-hydroxy-2-[[4-[4-(trifluoromethyl)phenoxy]-1-piperidinyl]sulfonyl]benzamide]

- IC50 (Recombinant human MMP-2; Inhibition Table A): 1800 nM
- IC50 (Recombinant human MMP-13; Inhibition Table A): 2000 nM
Structure (SMILES): O=C(NO)c1ccccc1S(=O)(=O)N1CCC(Oc2ccc(C(F)(F)F)cc2)C1 (centres unmarked) [Example 17, N-hydroxy-2-[[3-[4-(trifluoromethyl)phenoxy]-1-pyrrolidinyl]sulfonyl]benzamide]

- IC50 (Recombinant human MMP-1; Inhibition Table A): > 10000 nM
- IC50 (Recombinant human MMP-13; Inhibition Table A): 33 nM
Structure (SMILES): O=C(NO)c1ccccc1S(=O)(=O)N1CCC(Oc2ccc(OC(F)(F)F)cc2)CC1 [Example 12, N-hydroxy-2-[[4-[4-(trifluoromethoxy)phenoxy]-1-piperidinyl]sulfonyl]benzamide]

- IC50 (Recombinant human MMP-1; Table B): > 10000 nM
Structure (SMILES): O=C(NO)c1ccccc1S(=O)(=O)N1CCC(Oc2ccccn2)CC1 [Example 44, N-hydroxyl-2-[[4-(2-pyridinyloxy)-1-piperidinyl]sulfonyl]benzamide, monohydrochloride]

- IC50 (Recombinant human MMP-1; Table B): > 10000 nM
- IC50 (Recombinant human MMP-2; Table B): 0.4 nM
- IC50 (Recombinant human MMP-3): 1460 nM
- IC50 (Recombinant human MMP-8): 7.1 nM
- IC50 (Recombinant human MMP-9): 40.1 nM
- IC50 (Recombinant human MMP-13; Table B): 17.9 nM
- IC50 (Recombinant human MMP-14): 416 nM
Structure (SMILES): COc1ccc(S(=O)(=O)N2CCN(c3ccc(OC(F)(F)F)cc3)CC2)c(C(=O)NO)c1OC [Example 26]

- IC50 (Recombinant human MMP-1; Inhibition Table A): > 10000 nM
Structure (SMILES): COc1ccc(S(=O)(=O)N2CCC(Oc3ccc(C(F)(F)F)cc3)CC2)c(C(=O)NO)c1OC [Example 16, N-hydroxy-2,3-dimethoxy-6-[[4-[4-(trifluoromethyl)phenoxy]-1-piperidinyl)sulfonyl]benzamide]

- IC50 (Recombinant human MMP-1; Inhibition Table A): > 10000 nM
Structure (SMILES): O=C(NO)c1ccccc1CS(=O)(=O)c1ccc(Oc2ccccc2)cc1 [Example 1, N-hydroxy-2-[[(4-phenoxyphenyl)-sulfonyl]methyl]benzamide]

Structure (SMILES): CCCCOc1ccc(N2CCN(S(=O)(=O)c3ccc(OC)c(OC)c3C(=O)NO)CC2)cc1F [Example 25, 6-[[4-(butoxy-3-fluorophenyl)-1-piperazinyl]sulfonyl]-N-hydroxy-2,3-dimethoxybenzamide]
- IC50 (Recombinant human MMP-1; Table B): > 10000 nM
- IC50 (Recombinant human MMP-2; Table B): 0.4 nM
- IC50 (Recombinant human MMP-3): 294 nM
- IC50 (Recombinant human MMP-8): 252 nM
- IC50 (Recombinant human MMP-9): 22.1 nM
- IC50 (Recombinant human MMP-13; Table B): 8.5 nM
- IC50 (Recombinant human MMP-14): > 10000 nM

- IC50 (Recombinant human MMP-1; Inhibition Table A): > 10000 nM
Structure (SMILES): CC(O)(C(=O)NO)c1ccccc1S(=O)(=O)N1CCC(c2ccccc2)CC1 (centres unmarked) [Example 10, N,2-dihydroxy-2-methyl-2-[(4-phenyl-1-piperidinyl)sulfonyl]benzeneacetamide]

- IC50 (Recombinant human MMP-8): 107 nM
Structure (SMILES): COc1ccc(S(=O)(=O)N2CCC(Sc3ccccc3)CC2)c(C(=O)NO)c1OC [Example 24]

- IC50 (Recombinant human MMP-1; Inhibition Table A): > 10000 nM
- IC50 (Recombinant human MMP-2; Inhibition Table A): 148 nM
- IC50 (Recombinant human MMP-13; Inhibition Table A): 1000 nM
Structure (SMILES): O=C(NO)c1ccccc1S(=O)(=O)N1CCC(Cc2ccccc2)CC1 [Example 3, N-hydroxy-2-[[4-(phenylmethyl)-1-piperidinyl]sulfonyl]benzamide]

- IC50 (Recombinant human MMP-1; Inhibition Table A): > 10000 nM
- IC50 (Recombinant human MMP-2; Inhibition Table A): > 10000 nM
- IC50 (Recombinant human MMP-13; Inhibition Table A): > 10000 nM
Structure (SMILES): O=C(NO)c1ccccc1S(=O)(=O)Cc1ccc(-c2ccccc2)cc1 [Example 4, 2-[([1,11-biphenyl]-4-ylmethyl)-sulfonyl]-N-hydroxybenzamide]

- IC50 (Recombinant human MMP-1; Table B): > 10000 nM
Structure (SMILES): COc1ccccc1-c1ccc(OC2CCN(S(=O)(=O)c3ccc(OC)c(OC)c3C(=O)NO)CC2)cc1 [Example 22]

- IC50 (Recombinant human MMP-1; Inhibition Table A): > 10000 nM
Structure (SMILES): O=C(NO)c1ccccc1S(=O)(=O)N1CCC(c2ccccc2)CC1 [Example 9, N-Hydroxy-2-[[4-(phenyl)-1-piperidnyl]sulfonyl]benzamide]

Structure (SMILES): CNC(=O)[C@@H](NC(=O)[C@H](CC(C)C)[C@H](O)C(=O)NO)C(C)(C)C [Marimastat]
- most common drug-related toxicity ([1]; clinical trials): musculoskeletal pain and stiffness
- effect on cancer-specific antigens used as surrogate markers for biological activity ([1]; meta analysis of Phase I/II data, patients with advanced, treatment-refractory solid tumors): dose-related reduction in the rise of cancer-specific antigens

- IC50 (Recombinant human MMP-1; Inhibition Table A): > 10000 nM
- IC50 (Recombinant human MMP-2; Inhibition Table A): 3500 nM
- IC50 (Recombinant human MMP-13; Inhibition Table A): 9000 nM
Structure (SMILES): O=C(NO)c1ccccc1S(=O)(=O)Nc1ccc(Oc2ccccc2)cc1 [Example 15, N-hydroxy-2-[[(4-phenoxyphenyl)-amino]sulfonyl]benzamide]

- IC50 (Recombinant human MMP-1; Table B): > 10000 nM
- IC50 (Recombinant human MMP-2; Table B): 3.3 nM
- IC50 (Recombinant human MMP-3): 100 nM
- IC50 (Recombinant human MMP-8): 115 nM
- IC50 (Recombinant human MMP-9): 370 nM
- IC50 (Recombinant human MMP-13; Table B): 2.6 nM
- IC50 (Recombinant human MMP-14): 1700 nM
Structure (SMILES): COc1ccc(-c2ccc(OC3CCN(S(=O)(=O)c4ccc(OC)c(OC)c4C(=O)NO)CC3)cc2)cc1OC [Example 27]

- IC50 (Recombinant human MMP-1; Inhibition Table A): > 10000 nM
- IC50 (Recombinant human MMP-13; Inhibition Table A): > 10000 nM
Structure (SMILES): O=C(NO)c1ccccc1S(=O)(=O)NCc1ccccc1 [Example 8, N-hydroxy-2-[(benzylamino)sulfonyl]benzamide]

- IC50 (Recombinant human MMP-1; Table B): > 10000 nM
Structure (SMILES): COCCOc1cccc(S(=O)(=O)N2CCC(Oc3ccc(C(F)(F)F)cc3)CC2)c1C(=O)NO [Example 23, N-hydroxy-2-(2-methoxyethoxy)-6-[[4-[4-(trifluoromethyl)phenoxy]-1-piperidinyl]sulfonyl]benzamide]

- IC50 (Recombinant human MMP-1; Inhibition Table A): > 10000 nM
Structure (SMILES): O=C(NO)c1c(F)cccc1S(=O)(=O)N1CCC(Oc2ccc(C(F)(F)F)cc2)CC1 [Example 19]

- IC50 (Recombinant human MMP-2; Inhibition Table A): 2300 nM
- IC50 (Recombinant human MMP-13; Inhibition Table A): 2200 nM
Structure (SMILES): COc1ccc(C(=O)NC2CCN(S(=O)(=O)c3ccccc3C(=O)NO)C2)cc1 (centres unmarked) [Example 11, N-hydroxy-2-[[3-[(4-methoxybenzoyl)amino]-1-pyrrolidinyl]sulfonyl]benzamide]

- IC50 (Recombinant human MMP-1; Inhibition Table A): > 10000 nM
- IC50 (Recombinant human MMP-13; Inhibition Table A): > 10000 nM
Structure (SMILES): O=C(NO)c1ccccc1NS(=O)(=O)c1ccc(Oc2ccccc2)cc1 [Example 5, N-hydroxy-2-[[(4-phenoxyphenyl)-sulfonyl]amino]benzamide]
